Laboratory results reported in patent publication US6720342B2, “Heterocyclic compounds and their preparation and use” (Novo Nordisk A/S, priority 1996, dated 2004).
pIC50: −log10 of the molar value. Counter-ions that a name gives are not always drawn.

Assays:
[1] = target: T1, muscarinic receptors (M1-site, pirenzepine sensitive site) (Rattus norvegicus, UniProt P08482); assay: Inhibition of 3H-PRZ (pirenzepine, [N-methyl-3H]) binding to rat cerebral cortex membranes; settings: 1.0 nM 3H-Pirenzepine, 60 min at 20° C.
T1 construct: Fresh cortex (0.1-1 g) from male Wistar rats (150-200 g) is homogenized; from tissue; host or cells: rat (male Wistar) cerebral cortex membranes
T1 sequence (P08482 1-460): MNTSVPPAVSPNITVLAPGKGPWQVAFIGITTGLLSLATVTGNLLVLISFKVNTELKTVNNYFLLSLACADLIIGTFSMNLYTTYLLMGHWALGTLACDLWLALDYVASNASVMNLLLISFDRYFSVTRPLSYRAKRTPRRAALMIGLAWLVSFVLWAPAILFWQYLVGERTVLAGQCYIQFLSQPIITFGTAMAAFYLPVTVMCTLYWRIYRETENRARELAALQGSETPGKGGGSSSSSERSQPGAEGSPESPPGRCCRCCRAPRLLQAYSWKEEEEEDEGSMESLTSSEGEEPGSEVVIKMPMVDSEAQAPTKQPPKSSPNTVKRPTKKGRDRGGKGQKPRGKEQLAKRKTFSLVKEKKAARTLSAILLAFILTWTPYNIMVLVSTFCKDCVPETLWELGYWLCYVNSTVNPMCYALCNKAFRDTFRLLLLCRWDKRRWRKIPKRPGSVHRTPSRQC
Protocol: Furthermore the pharmacological properties of the compounds of the invention can also be illustrated by determining their capability to inhibit ^3H-PRZ (pirenzepine, [N-methyl-^3H]) binding to rat cerebral cortex membranes. Pirenzepine binds selectively to subtype of muscarinic receptors. Historically the type is named the M1-site, whereas pirenzepine sensitive site would be more appropriate. Although selective for M1-sites pirenzepine also interact with M2-sites.
(§1) All preparations are performed at 0-4° C. unless otherwise indicated. Fresh cortex (0.1-1 g) from male Wistar rats (150-200 g) is homogenized for 5-10 s. in 10 ml 20 mM Hepes pH: 7.4, with an Ultra-Turrax homogenizer. The homogenizer is rinsed with 2×10 ml of buffer and the combined suspension centrifuged for 15 min at 40,000×g. The pellet is washed three times with buffer. In each step the pellet is homogenized as before in 3×10 ml of buffer and centrifuged for 10 min at 40,000×g.
The final pellet is homogenized in 20 mM Hepes pH: 7.4 (100 ml per g of original tissue) and used for binding assay. Aliquots of 0.5 ml is added 20 μl of test solution and 25 μl of ^3H-Pirenzepine (1.0 nM, final conc.), mixed and incubated for 60 min at 20° C. Non-specific binding is determined in triplicate using atropine (1 μg/ml, final conc.) as the test substance. After incubation samples are added 5 ml of ice-cold buffer and poured directly onto Whatman GF/C glass fiber filters under suction and immediately washed 2 times with 5 ml of ice-cold buffer. The amount of radioactivity on the filters are determined by conventional liquid scintillation counting. Specific binding is total binding minus non-specific binding.
Test substances are dissolved in 10 ml water, at a concentration of 0.22 mg/ml. 25-75% inhibition of specific binding must be obtained before calculation of IC50.
The test value will be given as IC50 (the concentration (nM) of the test substance which inhibits the specific binding of ^3H-PRZ by 50%).
(§2) IC50=(applied test substance concentration)×(Cx/Co−Cx)nM
(§3) where Co is specific binding in control assays and Cx is the specific binding in the test assay. (The calculations assume normal mass-action kinetics).

[2] = target: muscarinic acetylcholine receptors; assay: Inhibition of specific binding of 3H-Oxotremorine-M (3H-Oxo) to rat cortex membranes; settings: rat cortex homogenate, 1.0 nM 3H-Oxotremorine, 30 min at 25° C.
Source text: The pharmacological properties of the compounds of the invention can be illustrated by determining their capability to inhibit the specific binding of ^3H-Oxotremorine-M (^3H-Oxo). Birdsdall N. J. M., Hulme E. C., and Burgen A. S. V. (1980). “The Character of Muscarinic Receptors in Different Regions of the Rat Brain”. Proc. Roy. Soc. London (Series B) 207, 1.
^3H-Oxo labels muscarinic receptor in the CNS (with a preference for agonist domains of the receptors). Three different sites are labelled by ^3H-Oxo. […] Using the present experimental conditions only the high and medium affinity sites are determined.
The inhibitory effects of compounds on ^3H-Oxo binding reflects the affinity for muscarinic acetylcholine receptors.
as §1, with “(150-250” for “(150-200”, “s” for “s.”, “10” for “2×10”, “min.” for “min”, “2×10” for “3×10”
The final pellet is homogenized in 20 mM Hepes pH: 7.4 (100 ml per g of original tissue) and used for binding assay. Aliquots of 0.5 ml is added 25 μl of test solution and 25 μl of ^3H-Oxotremorine (1.0 nM, final concentration) mixed and incubated for 30 min. at 25° C. Non-specific binding is determined in triplicate using arecoline (1 μg/ml, final concentration) as the test substance. After incubation samples are added 5 ml of ice-cold buffer and poured directly onto Whatman GF/C glass fiber filters under suction and immediately washed 2 times with 5 ml of ice-cold buffer. The amount of radioactivity on the filters are determined by conventional liquid scintillation counting. Specific binding is total binding minus non specific binding.
Test substances are dissolved in 10 ml water (if necessary heated on a steambath for less than 5 min.) at a concentration of 2.2 mg/ml. 25-75% inhibition of specific binding must be obtained before calculation of IC50.
The test value will be given as IC50 (the concentration (nM) of the test substance which inhibits the specific binding of ^3H-Oxo by 50%).
as §2, §3

Row | SMILES | melting point [°C] | pIC50 [1] | pIC50 [2]
1 | FCCSc1nsnc1OC1CN2CCC1C2 (stereo not drawn) (as salt: oxalate) [Compound 34, Endo 3-(3-[2-fluoroethyl-1-thio]-1,2,5-thiadiazol-4-yloxy)-1-azabicyclo-[2.2.1]heptane, oxalate] | 131 to 133 | – | –
2 | COc1cccc(C#CC(C)Oc2nsnc2OC2CN3CCC2C3)c1 (stereo not drawn) (as salt: oxalate) [Compound 17, Endo 3-(3-[4-(3-methoxyphenyl)-3-butyn-2-yloxy]-1,2,5-thiadiazol-4-yloxy)-1-azabicyclo[2.2.1]heptane, oxalate] | 102 to 103 | – | –
3 | CCCSc1nsnc1OC1CN2CCC1C2 (stereo not drawn) (as salt: oxalate) [Compound 2, Endo 3-(3-propylthio-1,2,5-thiadiazol-4-yloxy)-1-azabicyclo[2.2.1]heptane, oxalate] | 136 to 137 | – | –
4 | CC#CCOc1nsnc1OC1CN2CCC1C2 (stereo not drawn) (as salt: oxalate) [Compound 11, Endo 3-(3-[2-butynyl-1-oxy]-1,2,5-thiadiazol-4-yloxy)-1-azabicyclo[2.2.1]heptane, oxalate] | 194 to 196 | – | –
5 | FC(F)(F)Oc1ccc(COc2nsnc2OC2CN3CCC2C3)cc1 (stereo not drawn) (as salt: oxalate) [Compound 14, Endo 3-(3-[4-trifluoromethoxybenzyloxy]-1,2,5-thiadiazol-4-yloxy)-1-azabicyclo[2.2.1]heptane, oxalate] | 116 to 119 | – | –
6 | CC=CCOc1nsnc1OC1CN2CCC1C2 (stereo not drawn) (as salt: oxalate) [Compound 10, Endo 3-(3-[2-butenyl-1-oxy]-1,2,5-thiadiazol-4-yloxy)-1-azabicyclo[2.2.1]heptane, oxalate] | 129 to 131 | – | –
7 | Fc1cc(C(F)(F)F)ccc1COc1nsnc1OC1CN2CCC1C2 (stereo not drawn) (as salt: oxalate) [Compound 16, Endo 3-(3-[2-fluoro-4-(trifluoromethyl)-benzyloxy]-1,2,5-thiadiazol-4-yloxy)-1-azabicyclo[2.2.1]heptane, oxalate] | 112 to 114 | – | –
8 | COc1cccc(C#CCOc2nsnc2OC2CN3CCC2C3)c1 (stereo not drawn) (as salt: oxalate) [Compound 6, Endo 3-(3-[3-(3-methoxyphenyl)-2-propynyl-1-oxy]-1,2,5-thiadiazol-4-yloxy)-1-azabicyclo[2.2.1]heptane, oxalate] | 142 to 143 | – | –
9 | Clc1ccc(C#CCOc2nsnc2OC2CN3CCC2C3)cc1 (stereo not drawn) (as salt: oxalate) [Compound 18, Endo 3-(3-[3-(4-chlorophenyl)-2-propynyl-1-oxy]-1,2,5-thiadiazol-4-yloxy)-1-azabicyclo[2.2.1]heptane, oxalate] | 118 to 122 | – | –
10 | CCC(C#Cc1cccc(OC)c1)Oc1nsnc1OC1CN2CCC1C2 (stereo not drawn) (as salt: oxalate) [Compound 19, Endo 3-(3-[1-(3-methoxyphenyl)-1-pentyn-3-yloxy]-1,2,5-thiadiazol-4-yloxy)-1-azabicyclo[2.2.1]heptane, oxalate] | 98 to 101 | – | –
11 | C(#Cc1ccccn1)COc1nsnc1OC1CN2CCC1C2 (stereo not drawn) (as salt: oxalate) [Compound 25, Endo 3-(3-(2-pyridyl)-2-propyn-1-yloxy)-1,2,5-thiadiazol-4-yloxy)-1-azabicyclo[2.2.1]heptane, dioxalate] | 158 to 160 | – | –
12 | C(#Cc1ccccc1)COc1nsnc1OC1CN2CCC1C2 (stereo not drawn) (as salt: oxalate) [Compound 5, Endo 3-(3-[3-phenyl-2-propynyl-1-oxy]-1,2,5-thiadiazol-4-yloxy)-1-azabicyclo[2.2.1]heptane, oxalate] | 158 to 159 | – | –
13 | COCCOc1nsnc1OC1CN2CCC1C2 (stereo not drawn) (as salt: oxalate) [Compound 13, Endo 3-(3-methoxyethoxy-1,2,5-thiadiazol-4-yloxy)-1-azabicyclo[2.2.1]heptane, oxalate] | 139 to 141 | – | –

Next, values leading:

Row | melting point [°C] | pIC50 [1] | pIC50 [2] | SMILES
14 | 82 to 84 | 7.30 | 6.72 | CC(C#Cc1ccc(F)cc1)=CCOc1nsnc1OC1CN2CCC1C2 (stereo not drawn) [Compound 22, Endo (E)-3-(3-(5-(4-fluorophenyl)-3-methyl-2-penten-4-yn-1-yloxy)-1,2,5-thiadiazol-4-yloxy)-1-azabicyclo[2.2.1]heptane]
15 | 144 to 147 | – | – | COc1cccc(C#CC(Oc2nsnc2OC2CN3CCC2C3)C(C)C)c1 (stereo not drawn) (as salt: oxalate) [Compound 39, Endo 3-(3-[1-(3-methoxyphenyl)-4-methyl-1-pentyn-3-yloxy]-1,2,5-thiadiazol-4-yloxy)-1-azabicyclo[2.2.1]heptane, oxalate]
16 | 96 to 99 | – | – | C1CC(COc2nsnc2OC2CN3CCC2C3)C1 (stereo not drawn) (as salt: oxalate) [Compound 41, Endo 3-(3-cyclobutylmethyloxy-1,2,5-thiadiazol-4-yloxy)-1-azabicyclo-[2.2.1]heptane, oxalate]
17 | 98 to 100 | – | – | Fc1ccc(CSc2nsnc2OC2CN3CCC2C3)c(F)c1 (stereo not drawn) (as salt: oxalate) [Compound 33, Endo 3-(3-[2,4-difluorobenzylthio]-1,2,5-thiadiazol-4-yloxy)-1-azabicyclo-[2.2.1]heptane, oxalate]
18 | 146 to 148 | – | – | C(#Cc1ccoc1)COc1nsnc1OC1CN2CCC1C2 (stereo not drawn) (as salt: oxalate) [Compound 26, Endo 3-(3-(3-(3-furyl)-2-propyn-1-yloxy)-1,2,5-thiadiazol-4-yloxy)-1-azabicyclo[2.2.1]heptane, oxalate]
19 | 131 to 135 | – | – | FC(F)(F)c1cccc(C#CCOc2nsnc2OC2CN3CCC2C3)c1 (stereo not drawn) (as salt: oxalate) [Compound 20, Endo 3-(3-(3-(3-trifluoromethylphenyl)-2-propynyl-1-oxy)-1,2,5-thiadiazol-4-yloxy)-1-azabicyclo[2.2.1]heptane, oxalate]
20 | 196 to 197 | – | – | N#Cc1ccc(CSc2nsnc2OC2CN3CCC2C3)cc1 (stereo not drawn) (as salt: oxalate) [Compound 31, Endo 3-(3-[4-cyanobenzylthio]-1,2,5-thiadiazol-4-yloxy)-1-azabicyclo-[2.2.1]heptane, oxalate]
21 | 153 to 156 | – | – | FC(F)(F)COc1nsnc1OC1CN2CCC1C2 (stereo not drawn) (as salt: oxalate) [Compound 40, Endo 3-(3-[2,2,2-trifluoroethyl-1-oxy]-1,2,5-thiadiazol-4-yloxy)-1-azabicyclo[2.2.1]heptane, oxalate]
